Data: patent US20170368082A1, “FORMULATIONS OF BRINCIDOFOVIR” (priority 2016, published 2017)
Like-named read-outs stand apart in the source and are kept apart here.

Assay: Phase 2 toxicokinetics of brincidofovir and cidofovir in plasma
Format: in vivo, Sprague-Dawley CD rats
Conditions: plasma; for AUC(0-t) / Cmax / Tmax / concentration at 1 h / concentration at 2 h / concentration at 8 h / concentration at 24 h / concentration at 0 h: Sprague-Dawley CD, rat; for AUC(0-t) / Cmax / Tmax: iv, brincidofovir in plasma; for Tmax: read-out: Tmax; for concentration at 1 h / concentration at 2 h / concentration at 8 h / concentration at 24 h / concentration at 0 h: intravenous
Experimental: Plasma samples (108) were collected 2 hours following the initiation of dosing on Day 1 and Day 7 (Group 1), or at 1, 2, 8, and 24 hours following the initiation of dosing on Day 1, and prior to administration and at 2, 8, and 24 hours following the initiation of dosing on Day 7 (Groups 2 and 3), and analyzed to determine the concentrations of brincidofovir and the metabolite, cidofovir), by LC/MS/MS.
Approximately 0.4 mL of whole blood was obtained via the tail vein from each animal at each time point. Animals were not fasted prior to blood collection. Blood was collected into tubes containing K2EDTA anticoagulant and placed on wet ice in an upright position, per facility SOP prior to processing. Plasma was separated by centrifugation (10 minutes at approximately 2000 g, at approximately 2-8° C.). Approximately 0.10 mL of plasma was transferred into a single cryotube appropriately labeled with study number, animal number, time point, date of sampling and sample type. Remaining plasma was transferred into a second cryotube and retained as a backup sample. Plasma frozen at approximately −80±10° C. within approximately 2 hours after collection of each blood sample until analysis. Animals were euthanized (CO2 inhalation) after the final blood collection.
In general, TK parameters were estimated using mean plasma concentrations of brincidofovir and cidofovir derived from the composite blood sampling design using Phoenix WinNonLin (V 6.3).
A composite blood sampling design was used such that each rat was sampled twice per sampling day. Blood was collected via tail vein from unanesthetized animals into tubes containing anticoagulant and placed on wet ice in an upright position. Animals were not fasted prior to blood collection. Plasma was separated by centrifugation (for 10 minutes at approximately 2000 g, at approximately 2-8° C.), and transferred into individually labeled cryotubes. All cryotubes containing the collected plasma samples were appropriately labeled as to study number, animal number, time point, date of sampling and sample type. All plasma samples were obtained and frozen at approximately −80° C. (±10° C.) within approximately 2 hours after collection of each blood sample until analysis.
Rat plasma bioanalysis was conducted by Pyxant Laboratories. Plasma samples were analyzed for concentrations of brincidofovir and cidofovir using a method based upon protein precipitation extraction followed by LC-MS/MS analysis; calibration ranges for brincidofovir and cidofovir were 1.00-1500 ng/mL and 5.00-750 ng/mL, respectively, (Pyxant study number 3025) for a 50 μL aliquot of rat plasma. Sample analysis for ISR was not performed as part of this non-GLP study.
For the generation of Mean Profiles, all sample concentrations that were below the limit of quantitation (BLQ) were set to 0.
All pharmacokinetic parameter estimates were completed using a Non-Compartmental Model (Model 200-202 for IV infusion administration). The AUClast and AUCinf were calculated using the linear up log down trapezoidal rule.

[1] = female, 15 mg/kg, 15 mg/kg 2-hour IV infusion, Female rats, Day 1
[2] = female, 15 mg/kg, 15 mg/kg 2-hour IV infusion, Female rats, Day 7
[3] = male, 1 mg/kg, brincidofovir 1 mg/kg 2-h IV infusion, male rats, Day 1, BLQ imputed as zero, read-out: Imputed Concentration, Mean
[4] = male, 1 mg/kg, brincidofovir 1 mg/kg 2-h IV infusion, male rats, Day 1, BLQ imputed as zero, read-out: Imputed Concentration, individual animals
[5] = male, 1 mg/kg, 1 mg/kg 2-hour IV infusion, Male rats, Day 1
[6] = male, 1 mg/kg, 1 mg/kg 2-hour IV infusion, Male rats, Day 7
[7] = male, 15 mg/kg, 15 mg/kg 2-hour IV infusion, Male rats, Day 1
[8] = male, 15 mg/kg, 15 mg/kg 2-hour IV infusion, Male rats, Day 7

## CCCCCCCCCCCCCCCCOCCCOP(=O)(O)CO[C@H](CO)Cn1ccc(N)nc1=O [Brincidofovir]
[1]
  AUC(0-t): 7360 ng·h/mL
  Cmax: 3470 ng/mL
  Tmax: 1 h
[2]
  AUC(0-t): 3420 ng·h/mL
  Cmax: 1660 ng/mL
  Tmax: 2 h
[3]
  concentration at 1 h: 227 ng/mL
  concentration at 2 h: 235 ng/mL
[4]
  concentration at 1 h: 156 ng/mL
  concentration at 2 h: 220 ng/mL
male, 1 mg/kg, brincidofovir 1 mg/kg 2-h IV infusion, male rats, Day 1, 8 h, BLQ imputed as zero, read-out: Imputed Concentration, Mean
  concentration at 8 h: 0 ng/mL
male, 1 mg/kg, brincidofovir 1 mg/kg 2-h IV infusion, male rats, Day 1, 8 h, BLQ imputed as zero, read-out: Imputed Concentration, individual animals
  concentration at 8 h: 0 ng/mL
male, 1 mg/kg, brincidofovir 1 mg/kg 2-h IV infusion, male rats, Day 1, 24 h, BLQ imputed as zero, read-out: Imputed Concentration, Mean
  concentration at 24 h: 0 ng/mL
male, 1 mg/kg, brincidofovir 1 mg/kg 2-h IV infusion, male rats, Day 1, 24 h, BLQ imputed as zero, read-out: Imputed Concentration, individual animals
  concentration at 24 h: 0 ng/mL
male, 1 mg/kg, brincidofovir 1 mg/kg 2-h IV infusion, male rats, Day 7, 0 h, BLQ imputed as zero, read-out: Imputed Concentration, Mean
  concentration at 0 h: 0 ng/mL
male, 1 mg/kg, brincidofovir 1 mg/kg 2-h IV infusion, male rats, Day 7, 0 h, BLQ imputed as zero, read-out: Imputed Concentration, individual animals
  concentration at 0 h: 0 ng/mL
male, 15 mg/kg, brincidofovir 15 mg/kg, Male, Day 1, 24 h, read-out: brincidofovir Imputed Mean Concentration (IMC)
  concentration at 24 h: 1.22 ng/mL
male, 15 mg/kg, brincidofovir 15 mg/kg, Male, Day 1, 24 h, read-out: brincidofovir Mean Concentration (MC)
  concentration at 24 h: 1.22 ng/mL
male, 15 mg/kg, brincidofovir 15 mg/kg, Male, Day 7, 8 h, read-out: brincidofovir Imputed Mean Concentration (IMC)
  concentration at 8 h: 8.72 ng/mL
male, 15 mg/kg, brincidofovir 15 mg/kg, Male, Day 7, 24 h, read-out: brincidofovir Imputed Mean Concentration (IMC)
  concentration at 24 h: 1.45 ng/mL
male, 15 mg/kg, brincidofovir 15 mg/kg, Male, Day 7, 24 h, read-out: brincidofovir Mean Concentration (MC)
  concentration at 24 h: 1.45 ng/mL
male, 15 mg/kg, 15 mg/kg, male rats, Day 1, 8 h, read-out: C (Concentration), individual animals
  concentration at 8 h: 10.7 ng/mL
male, 15 mg/kg, 15 mg/kg, male rats, Day 1, 8 h, read-out: IC (Imputed Concentration), individual animals
  concentration at 8 h: 10.7 ng/mL
male, 15 mg/kg, 15 mg/kg, male rats, Day 1, 24 h, read-out: C (Concentration), individual animals
  concentration at 24 h: 1.2 ng/mL
male, 15 mg/kg, 15 mg/kg, male rats, Day 1, 24 h, read-out: IC (Imputed Concentration), individual animals
  concentration at 24 h: 1.2 ng/mL
male, 15 mg/kg, 15 mg/kg, male rats, Day 7, 8 h, read-out: C (Concentration), individual animals
  concentration at 8 h: 9.82 ng/mL
male, 15 mg/kg, 15 mg/kg, male rats, Day 7, 8 h, read-out: IC (Imputed Concentration), individual animals
  concentration at 8 h: 9.82 ng/mL
male, 15 mg/kg, 15 mg/kg, male rats, Day 7, 24 h, read-out: C (Concentration), individual animals
  concentration at 24 h: 1.85 ng/mL
male, 15 mg/kg, 15 mg/kg, male rats, Day 7, 24 h, read-out: IC (Imputed Concentration), individual animals
  concentration at 24 h: 1.85 ng/mL
[5]
  Cmax: 235 ng/mL
  Tmax: 2 h
[6]
  Cmax: 208 ng/mL
  Tmax: 2 h
[7]
  AUC(0-t): 8780 ng·h/mL
  Cmax: 4370 ng/mL
  Tmax: 1 h
[8]
  AUC(0-t): 4090 ng·h/mL
  Cmax: 1910 ng/mL
  Tmax: 2 h
1 mg/kg, female rats, Day 1, 8 h, listed as BCV, 1 mg/kg
  C (Concentration), individual animals: BLQ
1 mg/kg, female rats, Day 1, 24 h
  C (Concentration), individual animals: BLQ
1 mg/kg, female rats, Day 7, 0 h
  C (Concentration), individual animals: BLQ
1 mg/kg, female rats, Day 7, 8 h, listed as BCV, 1 mg/kg
  C (Concentration), individual animals: BLQ
1 mg/kg, female rats, Day 7, 24 h
  C (Concentration), individual animals: BLQ
1 mg/kg, male rats, Day 1, 8 h
  C (Concentration), individual animals: BLQ
1 mg/kg, male rats, Day 1, 24 h
  C (Concentration), individual animals: BLQ
1 mg/kg, male rats, Day 7, 0 h
  C (Concentration), individual animals: BLQ
1 mg/kg, male rats, Day 7, 8 h
  C (Concentration), individual animals: BLQ
1 mg/kg, male rats, Day 7, 24 h
  C (Concentration), individual animals: BLQ
15 mg/kg, female rats, Day 7, 0 h
  C (Concentration), individual animals: BLQ
